Values joined by “and” are separate entries in the source; they are usually repeats but may differ in a detail not shown here. Equal values may be shown once. Records with an inconclusive call do not appear.
Test system: nude mice, A549 intrarenal xenograft, tumor weight change
Assay: NCI In Vivo Anticancer Drug Screen. Data for tumor model A549 Human Adenocarcinoma of Lung with characteristics of Type II Alveolar Epithelial cells (intrarenal inoculation) in NU/NU BALB/C (nude) mice
Settings: endpoint: mean tumor weight change, higher = larger tumour
Protocol: The antitumor activity of compounds was measured in mice bearing transplantable tumors. Survival or tumor size were measured and the results are expressed as the measurement made in the treated group (T) divided by the measurement made in the vehicle treated control group (C). The tumor model used in this assay is A549 Human Adenocarcinoma of Lung with characteristics of Type II Alveolar Epithelial cells (intrarenal inoculation) in NU/NU BALB/C (nude) mice

[1] = dose: 150.0 mg/kg/injection, schedule: Q04DX003 (ip), vehicle: saline with Tween-80
[2] = dose: 30.0 mg/kg/injection, schedule: Q04DX003 (ip), vehicle: saline with Tween-80
[3] = dose: 60.0 mg/kg/injection, schedule: Q04DX003 (ip), vehicle: saline with Tween-80
[4] = dose: 120.0 mg/kg/injection, schedule: Q04DX003 (ip), vehicle: saline with Tween-80
[5] = dose: 50.0 mg/kg/injection, schedule: Q04DX003 (ip), vehicle: saline
[6] = dose: 25.0 mg/kg/injection, schedule: Q04DX003 (ip), vehicle: saline with Tween-80
[7] = dose: 50.0 mg/kg/injection, schedule: Q04DX003 (ip), vehicle: saline with Tween-80
[8] = dose: 75.0 mg/kg/injection, schedule: Q04DX003 (ip), vehicle: water
[9] = dose: 12.5 mg/kg/injection, schedule: Q04DX003 (ip), vehicle: saline with Tween-80
[10] = dose: 75.0 mg/kg/injection, schedule: Q04DX003 (ip), vehicle: saline with Tween-80
[11] = dose: 100.0 mg/kg/injection, schedule: Q04DX003 (ip), vehicle: saline with Tween-80
[12] = dose: 200.0 mg/kg/injection, schedule: Q04DX003 (ip), vehicle: saline with Tween-80

For `NC(=O)c1[nH]cnc1O`, the T/C [1] was 151 % of control.
With `Cn1c(=S)sc2nc3ccccc3n2c1=S` the T/C [2] was 83 % of control, the T/C [3] was 50 % of control and the T/C [4] was 73 % of control.
For `COc1ccc(C=C(C(=O)CCN(C)C)C(=O)CCN(C)C)cc1`, the T/C [5] was 96 % of control and the T/C (dose: 200.0 mg/kg/injection, schedule: Q04DX003 (ip), vehicle: saline) was 101 % of control.
In the case of `O=NNc1cccnc1`, the T/C (dose: 50.0 mg/kg/injection, schedule: Q04DX003 (ip), vehicle: water) is reported as 56 % of control and 75 % of control and the T/C (dose: 100.0 mg/kg/injection, schedule: Q04DX003 (ip), vehicle: water) is reported as 80 % of control.
With `COc1cccc2c1C(=O)c1c(O)c3c(c(O)c1C2=O)C[C@@](O)(C(=O)CO)C[C@@H]3OC1CC(N)C(O)C(C)O1` (stereo not given in full) the T/C (dose: 2.0 mg/kg/injection, schedule: Q04DX003 (ip), vehicle: saline) was 11 % of control and 13 % of control and 25 % of control, the T/C (dose: 4.0 mg/kg/injection, schedule: Q04DX003 (ip), vehicle: saline) was 9 % of control and 13 % of control and 20 % of control and the T/C (dose: 8.0 mg/kg/injection, schedule: Q04DX003 (ip), vehicle: saline) was 7 % of control and -9 % of control and -8 % of control.
For `CC(O)C1(O)C(O)CC(OC2c3cc4c(c(O)c3[C@@H]3C[C@@]2(C)OC32C=c3cc[nH]c3=N2)C(=O)c2cccc(O)c2C4=O)OC1C` (stereo not given in full), the T/C [6] was 65 % of control and the T/C [7] was 55 % of control.
With `COc1cc(C2=NCCc3cc4c(cc32)OCO4)cc(OC)c1OC` the T/C (dose: 37.5 mg/kg/injection, schedule: Q04DX003 (ip), vehicle: saline + alcohol) was 73 % of control, the T/C (dose: 75.0 mg/kg/injection, schedule: Q04DX003 (ip), vehicle: saline + alcohol) was 49 % of control and the T/C (dose: 150.0 mg/kg/injection, schedule: Q04DX003 (ip), vehicle: saline + alcohol) was 31 % of control.
For `COc1ccc(N=N/N=c2\sc3cc(OC)ccc3n2C)cc1`, the T/C [2] was 100 % of control, the T/C [3] was 87 % of control and the T/C [4] was 73 % of control. The T/C (dose: 240.0 mg/kg/injection, schedule: Q04DX003 (ip), vehicle: saline with Tween-80) was 37 % of control.
`Cc1ccccc1N=C(c1ccccc1)C1C(=O)c2ccccc2C1=O` was tested, and the T/C (dose: 150.0 mg/kg/injection, schedule: Q04DX003 (ip), vehicle: other) was 101 % of control, the T/C (dose: 300.0 mg/kg/injection, schedule: Q04DX003 (ip), vehicle: other) was 75 % of control and the T/C (dose: 600.0 mg/kg/injection, schedule: Q04DX003 (ip), vehicle: other) was 104 % of control. For the same molecule, the T/C (dose: 1200.0 mg/kg/injection, schedule: Q04DX003 (ip), vehicle: other) was 121 % of control.
With `CN(C)/N=N/c1nc[nH]c1C(N)=O` the T/C (dose: 75.0 mg/kg/injection, schedule: Q04DX003 (ip), vehicle: suspension in saline) was 11 % of control, the T/C (dose: 150.0 mg/kg/injection, schedule: Q04DX003 (ip), vehicle: suspension in saline) was 48 % of control and the T/C (dose: 225.0 mg/kg/injection, schedule: Q04DX003 (ip), vehicle: suspension in saline) was 8 % of control.
`CC(=O)c1cccc(NC2C(N)C(NC(=O)N(C)C)(C(C)O)C(C)(O)C2(O)COC(=O)c2c(C)cccc2O)c1` (stereo not given) was tested, and the T/C (dose: 6.25 mg/kg/injection, schedule: Q04DX003 (ip), vehicle: suspension in saline) was 183 % of control, the T/C (dose: 12.5 mg/kg/injection, schedule: Q04DX003 (ip), vehicle: suspension in saline) was 121 % of control and the T/C (dose: 25.0 mg/kg/injection, schedule: Q04DX003 (ip), vehicle: suspension in saline) was 120 % of control. For the same molecule, the T/C (dose: 50.0 mg/kg/injection, schedule: Q04DX003 (ip), vehicle: suspension in saline) was 68 % of control.
In the case of `CC(/C=C/C=C/C=C/C=C/C=C/C(O)=C1/C(=O)C(CCC(=O)O)N(C)C1=O)=C\C(C)C(OC1CC(O)C(O)C(C)O1)C(C)C` (stereo not given), the T/C (dose: 15.88 mg/kg/injection, schedule: Q04DX003 (ip), vehicle: water) is reported as 60 % of control, the T/C (dose: 31.75 mg/kg/injection, schedule: Q04DX003 (ip), vehicle: water) is reported as 61 % of control and the T/C (dose: 62.5 mg/kg/injection, schedule: Q04DX003 (ip), vehicle: water) is reported as 110 % of control. The T/C [8] was 37 % of control.
For `C/C(=N\NC(=S)N1CC2CCC(CC2)C1)c1cccc(C)n1`, the T/C [9] was 114 % of control and the T/C [6] was 81 % of control.
In the case of `CCCCCCNc1nc(NCCCCCC)c2[nH]c(NCCCCCC)nc2n1`, the T/C [10] is reported as 52 % of control and the T/C [1] is reported as 117 % of control.
In the case of `C=C(CO)C(=O)OC1CC(=C)C2CC(O)C(=C)C2[C@H]2OC(=O)C(=C)C12` (stereo not given in full), the T/C (dose: 2.36 mg/kg/injection, schedule: Q04DX003 (ip), vehicle: saline + alcohol) is reported as 64 % of control, the T/C (dose: 4.72 mg/kg/injection, schedule: Q04DX003 (ip), vehicle: saline + alcohol) is reported as 99 % of control and the T/C (dose: 8.75 mg/kg/injection, schedule: Q04DX003 (ip), vehicle: saline + alcohol) is reported as 86 % of control.
For `COc1cccc(Sc2ccc([N+](=O)[O-])c3no[n+]([O-])c23)c1`, the T/C [10] was 49 % of control and the T/C [1] was 86 % of control.
In the case of `Oc1cccc2ccccc12`, the T/C (dose: 37.5 mg/kg/injection, schedule: Q04DX003 (ip), vehicle: water) is reported as 102 % of control and the T/C [8] is reported as 54 % of control.
In the case of `CCC1(O)C(=O)OCc2c1cc1n(c2=O)Cc2cc3cc4c(cc3nc2-1)OCO4` (stereo not given), the T/C (dose: 4.0 mg/kg/injection, schedule: Q04DX003 (ip), vehicle: saline with Tween-80) is reported as 6 % of control.
In the case of `CC(=O)NO`, the T/C (dose: 150.0 mg/kg/injection, schedule: Q04DX003 (ip), vehicle: water) is reported as 83 % of control, the T/C (dose: 300.0 mg/kg/injection, schedule: Q04DX003 (ip), vehicle: water) is reported as 82 % of control and the T/C (dose: 600.0 mg/kg/injection, schedule: Q04DX003 (ip), vehicle: water) is reported as 109 % of control. The T/C (dose: 1200.0 mg/kg/injection, schedule: Q04DX003 (ip), vehicle: water) was 66 % of control.
With `CCN(CC)CC(C)(C)C(=O)/C=C/c1ccc(/C=C/C(=O)C(C)(C)CN(CC)CC)cc1` the T/C (dose: 15.0 mg/kg/injection, schedule: Q04DX003 (ip), vehicle: saline) was 84 % of control, the T/C (dose: 30.0 mg/kg/injection, schedule: Q04DX003 (ip), vehicle: saline) was 73 % of control and the T/C (dose: 60.0 mg/kg/injection, schedule: Q04DX003 (ip), vehicle: saline) was 82 % of control.
In the case of `CCOC1NC(=O)Oc2ccccc21` (stereo not given), the T/C (dose: 150.0 mg/kg/injection, schedule: Q04DX003 (ip), vehicle: Klucel (hydroxypropylcellulose) (HPC)) is reported as 43 % of control and the T/C (dose: 600.0 mg/kg/injection, schedule: Q04DX003 (ip), vehicle: Klucel (hydroxypropylcellulose) (HPC)) is reported as 54 % of control.
`Nc1n[nH]c2ccccc12` was tested, and the T/C [1] was 69 % of control, the T/C (dose: 300.0 mg/kg/injection, schedule: Q04DX003 (ip), vehicle: saline with Tween-80) was 52 % of control and the T/C (dose: 600.0 mg/kg/injection, schedule: Q04DX003 (ip), vehicle: saline with Tween-80) was 33 % of control.
For `COC12[C@@H]3N[C@@H]3CN1C1=C(C(=O)C(NCCSSCCNC3=C(C)C(=O)C4=C(C3=O)C(COC(N)=O)[C@]3(OC)C5N[C@@H]5CN43)=C(C)C1=O)[C@@H]2COC(N)=O` (stereo not given in full), the T/C (dose: 1.57 mg/kg/injection, schedule: Q04DX003 (ip), vehicle: DMSO) was 29 % of control, the T/C (dose: 3.13 mg/kg/injection, schedule: Q04DX003 (ip), vehicle: DMSO) was -77 % of control and the T/C (dose: 6.25 mg/kg/injection, schedule: Q04DX003 (ip), vehicle: DMSO) was -33 % of control. The T/C (dose: 12.5 mg/kg/injection, schedule: Q04DX003 (ip), vehicle: DMSO) was 2 % of control.
In the case of `COC1=C(OC)C(=O)C(N(C)C)=C(CO)C1=O`, the T/C [5] is reported as 123 % of control and the T/C (dose: 100.0 mg/kg/injection, schedule: Q04DX003 (ip), vehicle: saline) is reported as 173 % of control.
With `CC(O)CCC(=O)c1ccoc1` (stereo not given) the T/C (dose: 24.0 mg/kg/injection, schedule: Q04DX003 (ip), vehicle: saline) was 186 % of control and the T/C (dose: 32.0 mg/kg/injection, schedule: Q04DX003 (ip), vehicle: saline) was 82 % of control.
In the case of `Cc1ccoc1`, the T/C [7] is reported as 78 % of control, the T/C [11] is reported as 89 % of control and the T/C [12] is reported as 75 % of control.
For `S=C(N/N=C1/CCCC/C1=N/NC(=S)N1CCOCC1)N1CCOCC1`, the T/C (dose: 6.25 mg/kg/injection, schedule: Q04DX003 (ip), vehicle: saline with Tween-80) was 71 % of control, the T/C [9] was 27 % of control and the T/C [6] was 37 % of control. For the same molecule, the T/C [7] was 82 % of control.
In the case of `CN=C(N)c1ccc(N=C(N)c2ccc(C(N)=Nc3ccc(C(N)=NC)cc3)cc2)cc1`, the T/C (dose: 13.0 mg/kg/injection, schedule: Q06HX010 (ip), vehicle: water) is reported as 70 % of control and the T/C (dose: 20.0 mg/kg/injection, schedule: Q06HX010 (ip), vehicle: water) is reported as 98 % of control.
In the case of `CCOC(=O)C1=C(C)O/C(=C/c2cccc(Cl)c2)C1=O`, the T/C [6] is reported as 48 % of control, the T/C [7] is reported as 51 % of control and the T/C [11] is reported as 77 % of control. For the same molecule, the T/C [12] was 18 % of control.

Reference: PubChem BioAssay AID278 (DTP/NCI, 2004)
